Assays:
[1] = target: Bcl-2 protein (histag-Bcl-2, UniProtKB P10415) (Homo sapiens (Human), UniProt P10415); assay: Inhibition of Bcl-2 by the fluorescence polarisation technique; assay type: binding; conditions: fluorescence polarisation test; incubation for 2 hours; read-out: IC50 (nM) Bcl-2 FP
Source text: For partial inhibitors, the percentage fluorescence polarisation inhibition for a given concentration of the test compound is indicated.

[2] = system: RS4; 11 leukaemia cell line; assay: In vitro cytotoxicity, Microculture Tetrazolium Assay (MTT); assay type: cell-based; conditions: Homo sapiens, 11 cells exposed for 48 hours
Procedure: The cytotoxicity studies were carried out on the RS4; 11 leukaemia cell line and on H146 small Cell Lung Carcinoma cell line. The cells are distributed onto microplates and exposed to the test compounds for 48 hours. The cell viability is then quantified by a colorimetric assay, the Microculture Tetrazolium Assay (Cancer Res., 1987, 47, 939-942).

Sequence of Bcl-2 protein (P10415 whole entry): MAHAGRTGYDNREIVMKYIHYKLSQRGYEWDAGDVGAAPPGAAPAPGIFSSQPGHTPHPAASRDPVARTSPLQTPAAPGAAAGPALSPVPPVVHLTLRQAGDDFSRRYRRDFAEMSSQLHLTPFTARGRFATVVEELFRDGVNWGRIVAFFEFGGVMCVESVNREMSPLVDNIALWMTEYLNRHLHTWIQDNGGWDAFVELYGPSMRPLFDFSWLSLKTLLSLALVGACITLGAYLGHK

| SMILES | IC50 [1] | IC50 [2] |
| --- | --- | --- |
| Cc1c(C(=O)N(C)c2ccccc2)cc(-c2cc3c(cc2C(=O)N2Cc4ccccc4C[C@H]2CN2CCOCC2)CN(C(=O)Oc2cnc4[nH]ccc4c2)CC3)n1C [Example 633, 1H-Pyrrolo[2,3-b]pyridin-5-yl 6-{1,5-dimethyl-4-[methyl(phenyl)carbamoyl]-1H-pyrrol-2-yl}-7-[(3S)-3-(morpholin-4-ylmethyl)-1,2,3,4-tetrahydroisoquinoline-2-carbonyl]-1,2,3,4-tetrahydroisoquinoline-2-carboxylate] | 6.1 nM | 22 nM |
| Cc1c(C(=O)N(C)c2ccc(O)cc2)cc(-c2cc3c(cc2C(=O)N2Cc4ccccc4C[C@H]2C)CN(C(=O)Cc2ccc(F)cc2)C3)n1C [Example 102, 5-{2-[2-(4-Fluorophenyl)acetyl]-6-[(3R)-3-methyl-1,2,3,4-tetrahydroisoquinoline-2-carbonyl]-2,3-dihydro-1H-isoindol-5-yl}-N-(4-hydroxyphenyl)-N,1,2-trimethyl-1H-pyrrole-3-carboxamide] | 5 nM | 75 nM |
| Cc1c(C(=O)N(C)c2ccc(O)cc2)cc(-c2cc3c(cc2C(=O)N2Cc4ccccc4C[C@H]2CN2CCOCC2)CN(C(=O)Cc2ccccc2)CC3)n1C [Example 89, N-(4-Hydroxyphenyl)-N,1,2-trimethyl-5-{7-[(3S)-3-(morpholin-4-ylmethyl)-1,2,3,4-tetrahydroisoquinoline-2-carbonyl]-2-(2-phenylacetyl)-1,2,3,4-tetrahydroisoquinolin-6-yl}-1H-pyrrole-3-carboxamide] | 3.5 nM | 24 nM |
| C[C@@H]1Cc2ccccc2CN1C(=O)c1cc2c(cc1-c1cc(C(=O)N(C)c3ccc(O)cc3)c3n1CCCC3)CN(C(=O)COc1ccccc1Cl)C2 [Example 86, 3-{2-[2-(2-Chlorophenoxy)acetyl]-6-[(3R)-3-methyl-1,2,3,4-tetrahydroisoquinoline-2-carbonyl]-2,3-dihydro-1H-isoindol-5-yl}-N-(4-hydroxyphenyl)-N-methyl-5,6,7,8-tetrahydroindolizine-1-carboxamide] | 5.5 nM | 60 nM |
| Cc1c(C(=O)N(C)c2ccc(O)cc2)cc(-c2cc3c(cc2C(=O)N2Cc4ccccc4C[C@H]2CN2CCOCC2)CN(C(=O)COc2ccccc2)C3)n1C [Example 159, N-(4-Hydroxyphenyl)-N,1,2-trimethyl-5-{6-[(3S)-3-(morpholin-4-ylmethyl)-1,2,3,4-tetrahydroisoquinoline-2-carbonyl]-2-(2-phenoxyacetyl)-2,3-dihydro-1H-isoindol-5-yl}-1H-pyrrole-3-carboxamide] | 8.5 nM | 163 nM |
| Cc1c(C(=O)N(C)c2ccc(O)cc2)cc(-c2cc3c(cc2C(=O)N2Cc4ccccc4C[C@H]2CN2CCOCC2)CN(C(=O)CCC2CCCCC2)CC3)n1C [Example 132, 5-[2-(3-Cyclohexylpropanoyl)-7-[(3S)-3-(morpholin-4-ylmethyl)-1,2,3,4-tetrahydroisoquinoline-2-carbonyl]-1,2,3,4-tetrahydroisoquinolin-6-yl]-N-(4-hydroxyphenyl)-N,1,2-trimethyl-1H-pyrrole-3-carboxamide] | 4.6 nM | 32 nM |
| Cc1c(C(=O)N(C)c2ccc(O)cc2)cc(-c2cc3c(cc2C(=O)N2Cc4ccccc4C[C@H]2CN2CCN(C)CC2)CN(C(=O)C(F)(F)F)CC3)n1C [Example 783, N-(4-Hydroxyphenyl)-N,1,2-trimethyl-5-{7-[(3S)-3-[(4-methylpiperazin-1-yl)methyl]-1,2,3,4-tetrahydroisoquinoline-2-carbonyl]-2-(trifluoroacetyl)-1,2,3,4-tetrahydroisoquinolin-6-yl}-1H-pyrrole-3-carboxamide] | 23 nM | > 150 nM |
| CCN1CCc2cc(-c3cc(C(=O)N(C)c4ccc(O)cc4)c4n3CCCC4)c(C(=O)N3Cc4ccccc4C[C@H]3C)cc2C1 [Example 57, 3-{2-Ethyl-7-[(3R)-3-methyl-1,2,3,4-tetrahydroisoquinoline-2-carbonyl]-1,2,3,4-tetrahydroisoquinolin-6-yl}-N-(4-hydroxyphenyl)-N-methyl-5,6,7,8-tetrahydroindolizine-1-carboxamide] | 65 nM | 1250 nM |

From US9809574B2, “Isoindoline or isoquinoline compounds, a process for their preparation and pharmaceutical compositions containing them” (LES LABORATOIRES SERVIER, priority 2013, dated 2017)
